Like-named read-outs stand apart in the source and are kept apart here.
Columns and labels:
adjuvant arthritis [1] = experiment: Adjuvant-induced arthritis in rats, paw swelling of both hind legs, therapeutic dosing (Test Example 2); type: in vivo, Lewis male rat; settings: oral once a day for 7 days from day 18, 25th day; for Swelling rate: average of both hind legs; for Inhibition rate: vs control swelling rate
Method: A suspension of dead Mycobacterium tuberculosis in liquid paraffin (0.6 mg/0.1 mL) was intradermally injected to the base of tail of each Lewis male rat to induce adjuvant arthritis. On the 18th day after the induction of arthritis, the paw volumes of both hind legs were measured. The rats were grouped so that the paw volumes of both hind legs averaged out per group. The test substances were separately suspended or dissolved in 0.5% aqueous methylcellulose solutions to prepare dosing solutions, which were orally administered once a day for 7 days from the grouping date. In the case of combined administration, both test substances were simultaneously administered through an oral route.
The dose of iguratimod was set to 1 mg/kg, while the dose of prednisolone was set to 5 mg/kg. Alternatively, 1 mg/kg iguratimod and 5 mg/kg prednisolone were orally administered in combination.
1 mL of 0.5% aqueous methylcellulose solution per 100 g of body weight was orally administered to a control group that received no test substance after the grouping.
On the day after the final administration (on the 25th day after the induction of arthritis), the paw volumes of both hind legs were measured for each group. Subsequently, the rats were killed by blood removal. Then, their thymus glands, spleens, and adrenal glands were extirpated, and the weights were measured to calculate the ratio of each organ weight to 100 g body weight.

adjuvant arthritis [2] = experiment: Adjuvant-induced arthritis in rats, paw swelling of left hind leg (Test Example 1); type: in vivo, Lewis male rat; settings: oral once a day for 21 days; for Swelling rate: left hind leg, 21st day after arthritis induction; for Inhibition rate: vs control swelling rate, 21st day
Method: A suspension of dead Mycobacterium tuberculosis in liquid paraffin (0.6 mg/0.1 mL) was intradermally injected in the plantar region of left hind paw of each Lewis male rat to induce adjuvant arthritis. The paw volumes of both hind legs were measured using a plethysmometer on a daily basis from before to after the induction of arthritis. The test substances were separately suspended or dissolved in 0.5% aqueous methylcellulose solutions to prepare dosing solutions, which were orally administered once a day for 21 days from immediately after the adjuvant injection. In the case of combined administration, both test substances were simultaneously administered.
The dose of iguratimod was set to 3 mg/kg, while the dose of methotrexate was set to 0.1 mg/kg. Alternatively, 3 mg/kg iguratimod and 0.1 mg/kg methotrexate were administered in combination.
1 mL of 0.5% aqueous methylcellulose solution per 100 g of body weight was orally administered to an untreated normal group and a control group that received no test substance after the induction of arthritis.
On the day after the final administration (on the 21st day after the induction of arthritis), the paw volume of the left hind leg was measured for each group. Subsequently, peripheral blood was collected therefrom, and the reticulocyte count was measured.

HepG2 cells [3] = settings: human, 24 h
Method: (§1) HepG2 cells floating in a Dulbecco's modified Eagle's medium (DMEM) containing 10% fetal bovine serum (FBS) were inoculated at a concentration of 3.5×10^4 cells/0.1 mL/well to a 96-well plate and cultured at 37° C. for approximately 24 hours in a 5% CO2 atmosphere. Then, the medium was replaced by DMEM containing iguratimod and methotrexate and containing 0.5% FBS, and the cells were further cultured therein for 24 hours. In this context, iguratimod was dissolved in a 1.12-fold molar quantity of 0.1 mol/L sodium hydroxide solution, diluted with distilled water, and then added to the culture solution. Methotrexate was dissolved in dimethyl sulfoxide (DMSO) and added to the culture solution. Test substance-free DMEM containing 0.25% DMSO and 0.5% FBS was used in a control group.
(§2) After the completion of culture, each culture supernatant was separated, and the activity of lactate dehydrogenase (LDH) released outside the cells was determined using Cytotoxicity Detection Kit (LDH) (Roche Applied Science). In order to determine LDH activity in the whole cells, 0.1 mL of DMEM containing 2% Triton X-100 and 0.5% FBS was then added to each well after the culture supernatant separation to prepare a cell lysate. The LDH activity was determined in the same way as above.
(§3) The rate of LDH release (%) was calculated according to the formula shown below and indicated by the average value of each group. Its ratio with respect to the control group was also determined. Rate of LDH release (%)=Activity in the culture supernatant/(Activity in the culture supernatant+Activity in the cell lysate)×100

HepG2 cells [4] = experiment: Cellular damage of HepG2 cells, LDH release (Test Example 3); settings: iguratimod 0, HepG2, 24 hours; for Rate of LDH release: control 14.2
Method: as §1, §2, §3

## CS(=O)(=O)Nc1cc2occ(NC=O)c(=O)c2cc1Oc1ccccc1 [Iguratimod, N-[7-[(methanesulfonyl)amino]-4-oxo-6-phenoxy-4H-1-benzopyran-3-yl]formamide]
Adjuvant arthritis [1]; iguratimod 1 mg/kg
  Swelling rate: 76%
  Inhibition rate: 28%
Adjuvant arthritis [2]; iguratimod 3 mg/kg
  Swelling rate: 93%
  Inhibition rate: 40%
HepG2 cells [3]; 3 μg/mL
  Rate of LDH release: 15.9%
  Rate of LDH release, ratio to control group: 112%
HepG2 cells [3]; 30 μg/mL
  Rate of LDH release: 17.0%
  Rate of LDH release, ratio to control group: 120%

## CN(Cc1cnc2nc(N)nc(N)c2n1)c1ccc(C(=O)N[C@@H](CCC(=O)O)C(=O)O)cc1 [Methotrexate, methotrexate]
Adjuvant arthritis [2]; methotrexate 0.1 mg/kg
  Swelling rate: 114%
  Inhibition rate: 26%
HepG2 cells [4]; methotrexate 1 μg/mL
  Rate of LDH release, ratio to control group: 172%
  Rate of LDH release: 24.4%
HepG2 cells [4]; methotrexate 10 μg/mL
  Rate of LDH release, ratio to control group: 189%
  Rate of LDH release: 26.8%

## C[C@]12C=CC(=O)C=C1CC[C@@H]1[C@@H]2[C@@H](O)C[C@@]2(C)[C@H]1CC[C@]2(O)C(=O)CO [Prednisolone, prednisolone]
Adjuvant arthritis [1]; prednisolone 5 mg/kg
  Swelling rate: 66%
  Inhibition rate: 37%

From patent US9421186B2, “Method for improving therapy for autoimmune diseases such as rheumatoid arthritis” (priority 2012, dated 2016)
